Source: patent publication US7883707B2, “Induction of antigen specific immunnologic tolerance” (priority 2002, dated 2011)

Key:
[1] = system: antibody titer to rh-alpha-glucosidase (rhGAA); assay: ELISA antibody titer to rhGAA in canines on weekly rhGAA infusions; type: in vivo, canine
Procedure: Enzyme Infusions. […] Infusions were performed with 0.056 mg/kg/week recombinant human alpha glucosidase in a 50 mL infusion of saline and 10 mM NaPO4, pH 5.8. […] Animals were monitored for anaphylactic reaction.

fibroblasts = assay: Half maximal uptake (Kuptake) of alpha-glucosidase into fibroblasts; type: cell-based
[2] = control canine ST, no drug treatment

## rhGAA: recombinant human alpha-glucosidase, lysosomal enzyme being developed to treat Pompe disease
[1]; 0.056 mg/kg/week iv rhGAA, weeks 1-12
  Antibody levels to rhGAA at the highest point: > 150 OD Units
[1]; [2]
  titer by week 4: more than 100 OD units per microliter of serum
  titer subsequently (after week 4): 100-200 units per microliter of serum
[1]; control vs treated dog
  higher titer of control dog by week 5: 100 fold
fibroblasts
  Kuptake (enzyme concentration at half maximal uptake): about 1 nanomolar
